Assay results: patent US11865146B2 (priority 2015, dated 2024)

Tested on: C. difficile strain 630
Settings: BDM without glucose
Method: All strains for this study were maintained inside an anaerobic growth chamber with a gas mixture of 75% N2/20% CO2/5% H2 (Coy Lab Products, Grass Lake, MI). Liquid and solid growth media was allowed to reduce in the anaerobic chamber for a minimum of 24 hours prior to use. For transfer out of the chamber, liquid stocks were sealed in sterile, gas-tight crimp cap glass vials. C. difficile strain 630 was maintained at 37° C. on Clostridium difficile Moxalactam Norfloxacin (CDMN) blood agar plates (Aspinall et al. 1992 J Clin Pathol. 45:812-814), in Reinforced Clostridial Medium (RCM) broth (Difco DF1808173), or in Basal Defined Medium (BDM) (Karasawa et al. 1995 Microbiology. 141:371-375) broth. C. difficile amino acid (AA) utilization was assessed using modified BDM containing ½ or ¼ of the standard AA content. Proline utilization was assessed in modified BDM lacking glucose and proline. Bacterial growth rates were assessed using a BioTek Eon microplate spectrophotometer (BioTek, Winooski, VT).

## O=C(O)[C@@H]1CCCN1 [proline]
  C. difficile growth in the absence of proline: unable to grow
